Experimental data as given in patent US20160324172A1, “Post-Harvest Coating for Fresh Produce” (Jones-Hamilton Co., priority 2015, published 2016).

Assay: Solubility of emulsifier/stabilizer in the coating solution (visual evaluation)
Assay type: physicochemical
Description: For this experiment, coating solutions consisted of: 200 g tap water, 14 g SAS (7 w %), 30 g cornstarch (15 w %), and varying amounts of diverse emulsifiers/stabilizers.
Treatment: For each emulsifying material, one grape tomato was soaked for 1 minute in respective coating solution, and allowed to dry on a cooling tray. If material generated a visually preferred coating, 8 more grape tomatoes were coated (ntotal=9) in the same solution to generate enough samples for a microbial test. […] A second grape tomato was soaked, and if the stickiness improved, the concentration of the emulsifying ingredient was further increased until preferred coating was achieved. 8 more tomatoes were coated at preferred concentration (ntotal=9) for microbial testing.
Evaluation: Coatings were photographed and evaluated visually after the material dried. Microbial test of tomatoes with preferred coatings: Grape tomatoes were stored for 7 days at room temperature on cooling trays. Three tomatoes (triplicates) were swabbed with pre-wetted cotton swabs after: 24 hours, 3 days and 7 days. For dilution purpose, the swabs were transferred to Eppendorf tubes with 1 ml PBS. Three 1 ul loops (triplicates) were used to transfer three 1 ul samples per Eppendorf tube to nutrient agar plates. Per swab: 1 Eppendorf tubes and 3 nutrient agar plates. Per tomato: 3 Eppendorf tubes and 9 nutrient agar plates. Nutrient agar plates were incubated at room temperature for 7 days. Colony forming units were counted after: 24 hours, 3 days and 7 days.

- solubility in the water-based coating solution: good solubility
- Coating solution (Solubility of emulsifier/stabilizer) (200 g tap water, 14 g SAS, 30 g cornstarch plus emulsifier, visual evaluation): Good
- Solubility (overall assessment, solubility in coating solution): Good
Compound: OCC(O)CO [Vegetable glycerin, glycerin]
